Results from US8592422B2, “Bicyclic triazole and pyrazole lactams as allosteric modulators of mGluR5 receptors” (Vanderbilt University, priority 2010, dated 2013).

Each molecule was assayed against T1, human mGluR5a receptor (Homo sapiens, UniProt P41594) (assay: Cell-based functional Ca2+ mobilization assay (FDSS), potentiation of glutamate EC20 response). Settings: HEK cells transfected with human mGluR5 (H10H or H12H); in presence of EC20 glutamate.
T1 construct: cDNA subcloned into pcDNA3.1(-)
T1 sequence (P41594 21-1180 isoform P41594-2 limits assumed): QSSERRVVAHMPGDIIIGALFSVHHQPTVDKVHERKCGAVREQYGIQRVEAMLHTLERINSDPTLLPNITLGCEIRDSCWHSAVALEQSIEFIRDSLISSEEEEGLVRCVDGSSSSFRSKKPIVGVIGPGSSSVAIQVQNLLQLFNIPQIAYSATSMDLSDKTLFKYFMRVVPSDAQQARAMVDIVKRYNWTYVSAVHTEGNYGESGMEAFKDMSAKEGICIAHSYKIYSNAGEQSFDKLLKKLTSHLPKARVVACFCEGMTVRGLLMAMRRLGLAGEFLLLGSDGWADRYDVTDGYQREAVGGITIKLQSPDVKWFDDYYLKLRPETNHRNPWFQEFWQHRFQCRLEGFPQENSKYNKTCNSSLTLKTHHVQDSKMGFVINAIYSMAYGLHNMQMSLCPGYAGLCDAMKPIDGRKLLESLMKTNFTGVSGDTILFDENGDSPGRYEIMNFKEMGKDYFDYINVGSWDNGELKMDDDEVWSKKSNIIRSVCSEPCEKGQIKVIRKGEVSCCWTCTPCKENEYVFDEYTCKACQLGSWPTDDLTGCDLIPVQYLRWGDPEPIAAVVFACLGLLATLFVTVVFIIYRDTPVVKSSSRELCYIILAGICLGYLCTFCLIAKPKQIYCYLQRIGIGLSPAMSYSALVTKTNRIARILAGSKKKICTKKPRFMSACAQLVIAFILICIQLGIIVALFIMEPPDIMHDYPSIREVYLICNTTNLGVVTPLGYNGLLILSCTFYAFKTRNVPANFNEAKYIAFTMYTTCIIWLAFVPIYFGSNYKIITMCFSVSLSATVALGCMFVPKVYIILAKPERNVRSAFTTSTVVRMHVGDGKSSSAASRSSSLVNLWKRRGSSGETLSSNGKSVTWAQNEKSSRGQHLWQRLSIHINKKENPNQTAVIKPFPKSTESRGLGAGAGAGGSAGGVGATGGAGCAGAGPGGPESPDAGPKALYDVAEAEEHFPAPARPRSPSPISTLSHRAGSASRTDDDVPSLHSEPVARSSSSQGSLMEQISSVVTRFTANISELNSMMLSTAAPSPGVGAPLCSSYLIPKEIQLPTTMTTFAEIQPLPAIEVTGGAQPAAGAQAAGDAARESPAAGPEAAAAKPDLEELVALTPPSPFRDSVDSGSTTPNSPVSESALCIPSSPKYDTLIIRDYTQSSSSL
Method: Human embryonic kidney (HEK) cells transfected with rat mGluR5 were plated in clear bottom assay plates for assay in a Functional Drug Screening System (FDSS). In the alternative assay, HEK cells transfected with human mGluR5 were plated for assay in the FDSS. In some cases the HEK cells transfected with human mGluR5 were the H10H cell line. Alternatively, the HEK cells transfected with human mGluR5 were the H12H cell line. […] The cells were loaded with a Ca^2+-sensitive fluorescent dye (e.g., Fluo-4), and the plates were washed and placed in the FDSS instrument. After establishment of a fluorescence baseline for twelve seconds, the compounds of the present invention were added to the cells, and the response in cells was measured. Alternatively, in various further aspects, after establishment of a fluorescence baseline for about three seconds, the compounds of the present invention were added to the cells, and the response in cells was measured. Five minutes later, an mGluR5 agonist (e.g., glutamate, 3,5-dihydroxyphenylglycine, or quisqualate) was added to the cells, and the response of the cells was measured.
The above described assay operated in two modes. In the first mode, a range of concentrations of the present compounds were added to cells, followed by a single fixed concentration of agonist. If a compound acted as a potentiator, an EC50 value for potentiation and a maximum extent of potentiation by the compound at this concentration of agonist was determined by non-linear curve fitting. In the second mode, several fixed concentrations of the present compounds were added to various wells on a plate, followed by a range of concentrations of agonist for each concentration of present compound; the EC50 values for the agonist at each concentration of compound were determined by non-linear curve fitting. A decrease in the EC50 value of the agonist with increasing concentrations of the present compounds (a leftward shift of the agonist concentration-response curve) is an indication of the degree of mGluR5 potentiation at a given concentration of the present compound. An increase in the EC50 value of the agonist with increasing concentrations of the present compounds (a rightward shift of the agonist concentration-response curve) is an indication of the degree of mGluR5 antagonism at a given concentration of the present compound. The second mode also indicates whether the present compounds also affect the maximum response to mGluR5 to agonists.
The mGluR5 activity was determined using the metabotropic glutamate receptor activity assays in human embryonic kidney cells as described herein, wherein the human embryonic kidney cells were transfected with human mGluR5. The compounds in Table 1 were synthesized with methods identical or analogous to those shown herein. The requisite starting materials were commercially available, described in the literature, or readily synthesized by one skilled in the art of organic synthesis. The compound number given in Table I corresponds to the compound number in Table II and the structure given therein.
Human mGluR5a cDNA in pCMV6-XL6 mammalian expression plasmid was purchased from OriGene Technologies, Inc. (catalogue number SC326357) and subcloned into pcDNA3.1(−). Human embryonic kidney (HEK) 293A cells were then transfected with human mGluR5a pcDNA3.1(−) using LipofectAmine-2000 (Invitrogen) and monoclones were selected and tested for functional response using a Ca^2+ mobilization assay. Monoclones were named for the species (“H” for human) plus the location on the plate (e.g. “10H”).
HEK cells transfected with the human mGluR5a receptor (H10H or H12H cell line) were plated at 15,000 cells/well in clear-bottomed poly-D-lysine-coated assay plates (BD Falcon) in glutamate-glutamine-free growth medium and incubated overnight at 37° C. and 5% CO2.

Row | Compound | pEC50
1 | Cc1cccc(N2CCn3nc(COc4ccc(F)cc4)cc3C2=O)c1 [Example 224] | 7.02
2 | COc1nccnc1N1CCn2nc(COc3ccc(F)cc3)cc2C1=O [Example 226] | 6.08
3 | COc1nc(N2CCn3nc(COc4ccc(F)cc4)cc3C2=O)ncc1C [Example 230] | 6.78
4 | Cc1cccc(OCc2cc3n(n2)CC(C)N(c2ccc(F)cc2)C3=O)c1 (stereo not drawn) [Example 243] | 7.05
5 | CC1Cn2nc(COc3ccc(F)cc3)cc2C(=O)N1c1ccc(F)cc1 (stereo not drawn) [Example 245] | 6.86
6 | CC1Cn2nc(COc3ccccn3)cc2C(=O)N1c1ccc(F)cc1 (stereo not drawn) [Example 247] | 6.23
7 | CC1Cn2nc(COc3ccccc3)cc2C(=O)N1 (stereo not drawn) [Example 255] | <5.00
8 | O=C1c2c(Cl)c(COc3ccccc3)nn2CCN1CC1CC1 [Example 259] | <4.52
9 | O=C1c2cc(COc3ccccc3)nn2CC(CO)N1c1ccc(F)cc1 (stereo not drawn) [Example 265] | 5.65
10 | O=C1c2cc(COc3ccccc3)nn2CC(CF)N1c1ccc(F)cc1 (stereo not drawn) [Example 266] | 6.94

Results, then the molecule that gave them:

Row | pEC50 | Compound
11 | 6.59 | COc1nccc(N2CCn3nc(COc4ccc(F)cc4)cc3C2=O)n1 [Example 227]
12 | 6.92 | COc1cncc(N2CCn3nc(COc4ccc(F)cc4)cc3C2=O)n1 [Example 231]
13 | 7.25 | CC1Cn2nc(COc3cccc(F)c3)cc2C(=O)N1c1ccc(F)cc1 (stereo not drawn) [Example 244]
14 | <4.52 | O=C1c2c(Cl)c(COc3ccccc3)nn2CCN1c1ccc(F)cc1 [Example 260]
15 | 6.05 | Cc1c(COc2ccccc2)nn2c1C(=O)N(c1ccc(F)cc1)CC2 [Example 262]

Same assay, conditions: HEK cells transfected with human mGluR5 (H10H or H12H); in presence of EC20 glutamate; read-out: EC50

Row | Compound | EC50 [nM]
16 | Cc1cc(OCc2cc3n(n2)CCN(c2ccc(F)cc2)C3=O)cc(C)n1 [Example 175] | > 30200
17 | COc1nc(N2CCn3nc(COc4ccccn4)cc3C2=O)ncc1F [Example 209] | 525
18 | Cc1cccc(N2CCn3nc(COc4ccc(F)cc4)cc3C2=O)c1 [Example 224] | 95
19 | Cc1cc(N2CCn3nc(COc4ccc(F)cc4)cc3C2=O)ccc1F [Example 225] | 61
20 | COc1nccnc1N1CCn2nc(COc3ccc(F)cc3)cc2C1=O [Example 226] | 830
21 | COc1nc(N2CCn3nc(COc4ccc(F)cc4)cc3C2=O)ncc1C [Example 230] | 170
22 | Cc1cccc(OCc2cc3n(n2)CC(C)N(c2ccc(F)cc2)C3=O)c1 (stereo not drawn) [Example 243] | 89
23 | CC1Cn2nc(COc3ccc(F)cc3)cc2C(=O)N1c1ccc(F)cc1 (stereo not drawn) [Example 245] | 138
24 | C[C@@H]1Cn2nc(COc3cccc(C#N)c3)cc2C(=O)N1c1ccc(F)cc1 [Example 246] | 214
25 | CC1Cn2nc(COc3ccccn3)cc2C(=O)N1c1ccc(F)cc1 (stereo not drawn) [Example 247] | 589
26 | CC1Cn2nc(COc3ccccc3)cc2C(=O)N1 (stereo not drawn) [Example 255] | > 10000
27 | O=C1c2c(Cl)c(COc3ccccc3)nn2CCN1CC1CC1 [Example 259] | > 30200
28 | Cc1c(COc2ccccc2)nn2c1C(=O)N(CC1CC1)CC2 [Example 261] | > 30200
29 | O=C1c2cc(COc3ccccc3)nn2CC(CO)N1c1ccc(F)cc1 (stereo not drawn) [Example 265] | 2240
30 | O=C1c2cc(COc3ccccc3)nn2CC(CF)N1c1ccc(F)cc1 (stereo not drawn) [Example 266] | 115

The remaining lines, values ahead:

Row | EC50 [nM] | Compound
31 | 240 | Cc1ccc(OCc2cc3n(n2)CCN(c2ccc(F)cc2)C3=O)cc1 [Example 192]
32 | 2140 | COc1nccc(N2CCn3nc(COc4ccccn4)cc3C2=O)n1 [Example 210]
33 | 660 | COc1cncc(N2CCn3nc(COc4ccccn4)cc3C2=O)n1 [Example 213]
34 | 260 | COc1nccc(N2CCn3nc(COc4ccc(F)cc4)cc3C2=O)n1 [Example 227]
35 | 120 | COc1cc(N2CCn3nc(COc4ccc(F)cc4)cc3C2=O)ccc1F [Example 228]
36 | 110 | COc1cncc(N2CCn3nc(COc4ccc(F)cc4)cc3C2=O)n1 [Example 231]
37 | 56 | CC1Cn2nc(COc3cccc(F)c3)cc2C(=O)N1c1ccc(F)cc1 (stereo not drawn) [Example 244]
38 | > 30200 | O=C1c2c(Cl)c(COc3ccccc3)nn2CCN1c1ccc(F)cc1 [Example 260]
39 | 891 | Cc1c(COc2ccccc2)nn2c1C(=O)N(c1ccc(F)cc1)CC2 [Example 262]

Same assay, conditions: maximum % effect in concentration-response curve, as percent of response to maximally effective glutamate

Row | Compound | Emax [%] | Emax (%)
40 | Cc1cc(OCc2cc3n(n2)CCN(c2ccc(F)cc2)C3=O)cc(C)n1 [Example 175] | 22 | –
41 | COc1nc(N2CCn3nc(COc4ccccn4)cc3C2=O)ncc1F [Example 209] | 62 | –
42 | Cc1cccc(N2CCn3nc(COc4ccc(F)cc4)cc3C2=O)c1 [Example 224] | – | 72
43 | Cc1cc(N2CCn3nc(COc4ccc(F)cc4)cc3C2=O)ccc1F [Example 225] | 58 | –
44 | COc1nccnc1N1CCn2nc(COc3ccc(F)cc3)cc2C1=O [Example 226] | – | 57
45 | COc1nc(N2CCn3nc(COc4ccc(F)cc4)cc3C2=O)ncc1C [Example 230] | – | 72
46 | Cc1cccc(OCc2cc3n(n2)CC(C)N(c2ccc(F)cc2)C3=O)c1 (stereo not drawn) [Example 243] | – | 68
47 | CC1Cn2nc(COc3ccc(F)cc3)cc2C(=O)N1c1ccc(F)cc1 (stereo not drawn) [Example 245] | – | 74
48 | C[C@@H]1Cn2nc(COc3cccc(C#N)c3)cc2C(=O)N1c1ccc(F)cc1 [Example 246] | 69 | –
49 | CC1Cn2nc(COc3ccccn3)cc2C(=O)N1c1ccc(F)cc1 (stereo not drawn) [Example 247] | – | 73
50 | CC1Cn2nc(COc3ccccc3)cc2C(=O)N1 (stereo not drawn) [Example 255] | – | 46
51 | O=C1c2c(Cl)c(COc3ccccc3)nn2CCN1CC1CC1 [Example 259] | – | 14
52 | Cc1c(COc2ccccc2)nn2c1C(=O)N(CC1CC1)CC2 [Example 261] | 23 | –
53 | O=C1c2cc(COc3ccccc3)nn2CC(CO)N1c1ccc(F)cc1 (stereo not drawn) [Example 265] | – | 60
54 | O=C1c2cc(COc3ccccc3)nn2CC(CF)N1c1ccc(F)cc1 (stereo not drawn) [Example 266] | – | 65

The next lines start with the values.

Row | Emax [%] | Emax (%) | Compound
55 | 57 | – | Cc1ccc(OCc2cc3n(n2)CCN(c2ccc(F)cc2)C3=O)cc1 [Example 192]
56 | 50 | – | COc1nccc(N2CCn3nc(COc4ccccn4)cc3C2=O)n1 [Example 210]
57 | 56 | – | COc1cncc(N2CCn3nc(COc4ccccn4)cc3C2=O)n1 [Example 213]
58 | – | 62 | COc1nccc(N2CCn3nc(COc4ccc(F)cc4)cc3C2=O)n1 [Example 227]
59 | 65 | – | COc1cc(N2CCn3nc(COc4ccc(F)cc4)cc3C2=O)ccc1F [Example 228]
60 | – | 67 | COc1cncc(N2CCn3nc(COc4ccc(F)cc4)cc3C2=O)n1 [Example 231]
61 | – | 78 | CC1Cn2nc(COc3cccc(F)c3)cc2C(=O)N1c1ccc(F)cc1 (stereo not drawn) [Example 244]
62 | – | 17 | O=C1c2c(Cl)c(COc3ccccc3)nn2CCN1c1ccc(F)cc1 [Example 260]
63 | – | 32 | Cc1c(COc2ccccc2)nn2c1C(=O)N(c1ccc(F)cc1)CC2 [Example 262]
